According to the NIST ThermoML archive (doi:10.1016/j.fluid.2011.05.004):

Conditions: Liquid, Chromatography

In the case of `CC(C)CC(C)(C)C` [2,2,4-trimethylpentane], the “vapor or sublimation pressure” value (323.65 K) is reported as 20 kPa and the “vapor or sublimation pressure” value (372.33 K) is reported as 101.3 kPa.

With `CCC(C)=O` [butanone] the “vapor or sublimation pressure” value (309.65 K) was 20 kPa, the “vapor or sublimation pressure” value (319.95 K) was 30 kPa and the “vapor or sublimation pressure” value (352.68 K) was 101.3 kPa.

With `CCCCCCC` [heptane] the “vapor or sublimation pressure” value (324.56 K) was 20 kPa and the “vapor or sublimation pressure” value (371.35 K) was 101.3 kPa.

With `CCCCCC` [hexane] the “vapor or sublimation pressure” value (307.66 K) was 30 kPa and the “vapor or sublimation pressure” value (341.79 K) was 101.3 kPa.
